Data as given in US11149016B2, “S-substituted-2-amino-3-mercaptopropionate derivative, preparation method and application thereof” (JIANGSU TASLY DIYI PHARMACEUTICAL CO., LTD., priority 2016, dated 2021).

System: mice with memory disorders caused by scopolamine
Assay: Passive avoidance (darkroom) test in mice with scopolamine-injured memory
Format: in vivo, ICR mice
Details: for Error times (number of times entering the darkroom within 3 minutes) / Latency (s) of entering the darkroom: intragastric, 7 days, scopolamine 3 mg/kg 20 minutes before testing, x ± s, n = 10; for Activity compared with SPRC (in words) / Effect on error times of mice with memory impairment entering the darkroom (in words) / Effect on latency of mice with memory impairment entering the darkroom (in words): passive avoidance test, scopolamine model
From the text: Memory functions of mice are injured by scopolamine, and effects of improvement of tested materials on the memory functions of the mice are observed.
Animals: ICR mice, male, 20-22 g, purchased from Institute for Experimental Animals in Chinese Academy of Medical Sciences, certification number: SCXK (JING) 2014-0004.
Agent: scopolamine (J&K Company), donepezil reagent (TCI Company).
Tested materials: 4 tested materials and a positive-drug donepezil are provided by Tasly Group. Dosage of administration: administered by tested materials according to 80 mg/kg weight, administered by donepezil according to 5 mg/kg weight, an administration volume of 2 ml.
purchasing 60 mice, and enabling the mice to adapt to an environment for three days; dividing the mice into 6 groups randomly, wherein a blank control group includes 10 mice, the rest mice are contained in administration groups, and each administration group includes 10 mice; respectively administering the tested materials and positive drug, performing intragastric administration for 7 days, putting the mice into a darkroom to adapt to the environment on the fifth day during administration, electrifying the darkroom on the sixth day during administration, training the mice to elude the darkroom, and training each mouse once; testing on the seventh day, administering with scopolamine by 3 mg/kg within 20 minutes before testing, and recording time of the mice entering the darkroom for the first time and a number of times of the mice entering the darkroom within 3 minutes during testing.
Passive avoidance response is a common method used commonly to detect learning and memory functions of small animals. With respect to a passive avoidance test, by means of a feature that rodents like darkness and keep in a dark place, the rodents are stimulated in the dark to escape to a bright place to acquire memory, and the passive avoidance test is a type of passive avoidance response experiments. The passive avoidance test has a short experimental period and is applicable to rapid drug screening. The scopolamine may inhibit release of acetyl choline, so as to form learning and memory disorders. The passive avoidance test is a stable learning and memory disorder modeling method and has excellent model reproducibility.

[1] = positive drug donepezil 5 mg/kg
[2] = tested materials 80 mg/kg, time of first entry into darkroom

Row | Structure (SMILES) | Error times (number of times entering the darkroom within 3 minutes) [1] | Latency (s) of entering the darkroom [1] [s] | Latency (s) of entering the darkroom [2] [s] | Error times (number of times entering the darkroom within 3 minutes) (tested materials 80 mg/kg) | Activity compared with SPRC (in words) | Effect on error times of mice with memory impairment entering the darkroom (in words) | Effect on latency of mice with memory impairment entering the darkroom (in words)
1 | COc1cc2c(cc1OC)C(=O)C(CC1CCN(Cc3ccccc3)CC1)C2 (centres unmarked) [Donepezil, donepezil, reference compound] | 6.8 ± 5.4 | 49.5 ± 71.6 |  |  |  |  | 
2 | C#CCSC[C@H](N)C(=O)O [SPRC, S-propargyl-cysteine, reference compound] |  |  | 50.5 ± 69.7 | 3.8 ± 4.0 |  |  | 
3 | C#CCSCC(N)C(=O)Oc1ccc(-c2cc(=S)ss2)cc1 (centres unmarked) [Va, 2-amino-3-propinylmercaptopropionic acid-4-(3-thio-3H-1,2-dithio-5-alkenyl) phenol ester] |  |  | 55.8 ± 61.3 | 4.7 ± 4.6 |  |  | 
4 | C#CCSCC(N)C(=O)Oc1ccc(C=O)cc1 (centres unmarked) [Vb, 2-amino-3-propinylmercaptopropionic acid-4-formyl phenol ester] |  |  | 53.2 ± 59.4 | 4.1 ± 3.7 |  |  | 
5 | C#CCSCC(N)C(=O)Oc1ccc(CO)cc1 (centres unmarked) [Vc, 2-amino-3-propinylmercaptopropionic acid-4-benzyl alcohol phenol ester] |  |  | 66.8 ± 57.1 | 2.4 ± 1.3 | obviously better than the activity of the SPRC | trend of decreasing the error times | trend of increasing the latency
6 | C#CCSCC(N)C(=O)OCc1ccc(OC(=O)C(N)CSCC#C)cc1 (centres unmarked) [Vd, bis(2-amino-3-propinylmercaptopropionic acid)-4-benzyl alcohol-1-phenol diester] |  |  | 63.6 ± 69.5 | 2.6 ± 3.3 | obviously better than the activity of the SPRC | trend of decreasing the error times | trend of increasing the latency
7 | C#CCSCC(N)C(=O)OCCCC[N+](=O)[O-] (centres unmarked) [Vf, 2-amino-3-propinylmercaptopropionic acid-4-nitro-1-butanol ester] |  |  | 60.2 ± 61.3 | 2.4 ± 2.3 | obviously better than the activity of the SPRC | trend of decreasing the error times | trend of increasing the latency
